Where two headings read alike, the source gives them in different places.
Key:
[1] = tested on: green peach aphid (Myzus persicae); test: Myzus spray test (MYZUPE); format: in vivo; conditions: for inhibition at 100 g/ha / inhibition at 500 g/ha / inhibition at 20 g/ha: Myzus persicae, 144 h; for inhibition at 100 g/ha / inhibition at 20 g/ha: read-out: % Activity; for efficacy compared to similar compounds of the prior art: MYZUPE spray test
Method: Myzus—Spray Test (MYZUPE)
(§1) • Solvents: 78.0 parts by weight of acetone • 1.5 parts by weight of dimethylformamide • Emulsifier: 0.5 part by weight of alkylaryl polyglycol ether
(§2) To produce a suitable preparation of active compound, 1 part by weight of active compound is mixed with the stated amounts of solvents and emulsifier, and the concentrate is diluted with emulsifier-containing water to the desired concentration.
Discs of Chinese cabbage leaves (Brassica pekinensis) infested by all stages of the green peach aphid (Myzus persicae) are sprayed with an active compound preparation of the desired concentration.
After the desired period of time, the effect in % is determined. 100% here means that all of the aphids have been killed; 0% means that no aphids have been killed.

[2] = tested on: greenhouse red spider mite (Tetranychus urticae); test: Tetranychus urticae spray test, OP-resistant (TETRUR), bean leaf discs; format: in vivo; conditions: for inhibition at 100 g/ha / inhibition at 500 g/ha: Tetranychus urticae, foliar, 144 h, read-out: % Activity; for efficacy compared to similar compounds of the prior art: TETRUR spray test, leaf discs
Method: Tetranychus urticae—Spray Test; OP-resistant (TETRUR)
as §1, §2
Discs of bean leaves (Phaseolus vulgaris) which are infested by all stages of the greenhouse red spider mite (Tetranychus urticae) are sprayed with an active compound preparation of the desired concentration.
After the desired period of time, the effect in % is determined. 100% means that all of the spider mites have been killed; 0% means that none of the spider mites have been killed.

[3] = tested on: larvae of the mustard beetle (Phaedon cochleariae); test: Phaedon cochleariae spray test (PHAECO); format: in vivo; conditions: for inhibition at 100 g/ha / inhibition at 20 g/ha: Phaedon cochleariae, 168 h; for efficacy compared to similar compounds of the prior art: PHAECO spray test; for inhibition at 20 g/ha: read-out: % Activity
Method: Phaedon Cochleariae—Spray Test (PHAECO)
as §1, §2
After the desired period of time, the effect in % is determined 100% means that all of the beetle larvae have been killed; 0% means that none of the beetle larvae have been killed.

[4] = tested on: caterpillars of the armyworm (Spodoptera frugiperda); test: Spodoptera frugiperda spray test (SPODFR); format: in vivo; conditions: 168 h, 7 dat
Method: Spodoptera frugiperda—Spray Test (SPODFR)
as §2, with “• Solvents: 78.0 parts by weight of acetone • 1.5 parts by weight of dimethylformamide • Emulsifier: 0.5 part by weight of alkylaryl polyglycol ether • To” for “To”
Leaf discs of maize (Zea mays) are sprayed with an active compound preparation of the desired concentration and, after drying, populated with caterpillars of the armyworm (Spodoptera frugiperda).
After the desired period of time, the effect in % is determined. 100% means that all of the caterpillars have been killed; 0% means that none of the caterpillars have been killed.

[5] = logP determination by HPLC on a reversed-phase column (C18), EEC Directive 79/831 Annex V.A8; format: physicochemical; conditions: HPLC-MS, C18, acetonitrile (0.1% formic acid)/water (0.09% formic acid) gradient, read-out: log P
Method: HPLC-MS^a): mass (m/z)=462 […]. ^a) Note regarding the determination of the logP values and mass detection: The determination of the given logP values was carried out in accordance with EEC Directive 79/831 Annex V.A8 by HPLC (High Performance Liquid Chromatography) on a reversed-phase column (C18). Agilent 1100 LC system; 50*4.6 Zorbax Eclipse Plus C18 1.8 micron; mobile phase A: acetonitrile (0.1% formic acid); mobile phase B: water (0.09% formic acid); linear gradient from 10% acetonitrile to 95% acetonitrile in 4.25 min, then 95% acetonitrile for a further 1.25 min; oven temperature 55° C.; flow rate: 2.0 ml/min Mass detection is via an Agilent MSD system.
The calibration is carried out using unbranched alkan-2-ones (having 3 to 16 carbon atoms) with known logP values (determination of the logP values by the retention times using linear interpolation between two successive alkanones). The lambda-maX values were determined in the maxima of the chromatographic signals using the UV spectra from 200 nm to 400 nm.

With `Cn1nc(C(F)(F)F)c(Cl)c1C(=O)Nc1ccc(Cl)c(C(=O)NC2CC2)c1` [Example Ik-18, reference compound] the inhibition at 100 g/ha ([1]; MYZUPE, 100 g/ha, 6 dat) was 0%.
`CN(C(=O)c1c(C(F)(F)F)c(C(F)(F)C(F)(F)F)nn1C)c1ccc(Cl)c(C(=O)NC2CC2)c1` [Example Ik-132, reference compound] gave an inhibition at 100 g/ha ([1]; MYZUPE, 100 g/ha, 6 dat) of 0%.
`CC(C)NC(=O)c1cc(NC(=O)c2c(Br)c(C(F)(F)C(F)(F)F)nn2C)ccc1Cl` [Example Ik-27, reference compound] gave an inhibition at 100 g/ha ([2]; TETRUR, 100 g/ha, 6 dat) of 0%.
Work on `CC(=O)NCc1c(F)ccc(NC(=O)c2c(C(F)(F)F)c(C(F)(F)C(F)(F)F)nn2C)c1F` [Example 11] yielded an inhibition at 500 g/ha ([2]; TETRUR, 500 g/ha, 6 dat) of 90% and an inhibition at 100 g/ha ([3]; PHAECO, 7 dat) of 100%.
With `CCC(=O)NCc1c(F)ccc(NC(=O)c2c(C(F)(F)F)c(C(F)(F)C(F)(F)F)nn2C)c1F` [Example 6] the inhibition at 100 g/ha [4] was 100%, the “efficacy compared to similar compounds of the prior art” value (“efficacy compared to similar compounds” below) [3] was “superior efficacy” and the inhibition at 100 g/ha ([3]; PHAECO, 7 dat) was 100%.
With `CC(=O)NCc1cc(NC(=O)c2c(Cl)c(C(F)(F)F)nn2C)ccc1F` [Example 937] the “efficacy compared to similar compounds” value [1] was “superior efficacy” and the inhibition at 100 g/ha ([1]; MYZUPE, 100 g/ha, 6 dat) was 90%.
With `Cn1nc(C(F)(F)C(F)(F)F)c(C(F)(F)F)c1C(=O)Nc1cccc(C(=O)NC2CC2)c1` [Example Ik-13, reference compound] the inhibition at 500 g/ha ([2]; TETRUR, 500 g/ha, 6 dat) was 0% and the inhibition at 500 g/ha ([1]; MYZUPE, 6 dat) was 0%.
`CC(=O)NCc1cc(N(C)C(=O)c2c(C(F)(F)F)c(C(F)(F)C(F)(F)F)nn2C)ccc1F` [Example 8] showed an inhibition at 500 g/ha ([2]; TETRUR, 500 g/ha, 6 dat) of 100% and an inhibition at 500 g/ha ([1]; MYZUPE, 6 dat) of 100%.
For `Cn1nc(C(F)(F)C(F)(F)F)c(Br)c1C(=O)Nc1ccc(Cl)c(C(=O)NC2CC2)c1` [Example Ik-26, reference compound], the inhibition at 100 g/ha ([2]; TETRUR, 100 g/ha, 6 dat) was 0% and the inhibition at 20 g/ha ([3]; PHAECO, 20 g/ha, 7 dat) was 0%.
`CCC(=O)NCc1cc(N(C)C(=O)c2c(C(F)(F)F)c(C(F)(F)C(F)(F)F)nn2C)ccc1F` [Example 1] gave an inhibition at 500 g/ha [2] of 100%, an inhibition at 20 g/ha [3] of 100% and an inhibition at 20 g/ha [1] of 90%.
With `Cn1nc(C(F)(F)C(F)(F)F)c(Br)c1C(=O)Nc1ccc(F)c(CNC(=O)C2CC2)c1` [Example 933] the “efficacy compared to similar compounds” value [2] was “superior efficacy”, the inhibition at 100 g/ha ([2]; TETRUR, 100 g/ha, 6 dat) was 90% and the “efficacy compared to similar compounds” value [3] was “superior efficacy”. It also gave an inhibition at 20 g/ha ([3]; PHAECO, 20 g/ha, 7 dat) of 100%.
For `CN(C(=O)c1c(C(F)(F)F)c(C(F)(F)C(F)(F)F)nn1C)c1cccc(CNC(=O)C2CC2)c1` [Example 10], the inhibition at 500 g/ha ([2]; TETRUR, 500 g/ha, 6 dat) was 100% and the inhibition at 100 g/ha ([1]; MYZUPE, 100 g/ha, 6 dat) was 100%.
For `Cn1nc(C(F)(F)C(F)(F)F)c([N+](=O)[O-])c1C(=O)O` [1-Methyl-4-nitro-3-(pentafluoroethyl)-1H-pyrazole-5-carboxylic acid], the chromatographic logP [5] was 1.41.
For `CC(C)NC(=O)c1c(F)ccc(NC(=O)c2c(C(F)(F)F)c(C(F)(F)C(F)(F)F)nn2C)c1F` [Example Ik-74, reference compound], the inhibition at 100 g/ha [4] was 0%, the inhibition at 500 g/ha ([2]; TETRUR, 500 g/ha, 6 dat) was 0% and the inhibition at 100 g/ha ([3]; PHAECO, 7 dat) was 33%. The inhibition at 500 g/ha ([1]; MYZUPE, 6 dat) was 0%.
In the case of `CCCNC(=O)c1cc(NC(=O)c2c(C(F)(F)F)c(C(F)(F)C(F)(F)F)nn2C)ccc1Cl` [Example Ik-30, reference compound], the inhibition at 20 g/ha ([1]; MYZUPE, 20 g/ha, 6 dat) was 0%.
With `CCN(C(=O)c1c(C(F)(F)F)c(C(F)(F)C(F)(F)F)nn1C)c1ccc(F)c(CNC(=O)C2CC2)c1` [Example 2] the “efficacy compared to similar compounds” value [2] was “superior efficacy”, the inhibition at 100 g/ha [2] was 100% and the “efficacy compared to similar compounds” value [1] was “superior efficacy”. The inhibition at 100 g/ha [1] was 90%.
With `CCC(=O)NCc1cc(NC(=O)c2c(C(F)(F)F)c(C(F)(F)F)nn2C)ccc1F` [Example 201] the “efficacy compared to similar compounds” value [2] was “superior efficacy”, the inhibition at 100 g/ha ([2]; TETRUR, 100 g/ha, 6 dat) was 100% and the “efficacy compared to similar compounds” value [1] was “superior efficacy”. The inhibition at 20 g/ha ([1]; MYZUPE, 20 g/ha, 6 dat) was 100%.
`CCC(=O)NC(C)c1cc(NC(=O)c2c(C(F)(F)F)c(C(F)(F)C(F)(F)F)nn2C)ccc1Cl` (stereo not shown) [Am-28, N-{4-chloro-3-[1-(propionylamino)ethyl]phenyl}-1-methyl-3-(pentafluoroethyl)-4-(trifluoromethyl)-1H-pyrazole-5-carboxamide] gave a chromatographic logP [5] of 3.55.
`Cn1nc(C(F)(F)F)c(C(F)(F)F)c1C(=O)Nc1ccc(Cl)c(C(=O)NC2CC2)c1` [Example Ik-195, reference compound] showed an inhibition at 20 g/ha ([1]; MYZUPE, 20 g/ha, 6 dat) of 0%.
In the case of `Cn1nc(C(F)(F)F)c(C(F)(F)F)c1C(=O)Nc1ccc(F)c(CNC(=O)C2CC2)c1` [Example 298], the “efficacy compared to similar compounds” value [1] was “superior efficacy” and the inhibition at 20 g/ha ([1]; MYZUPE, 20 g/ha, 6 dat) was 90%.
Work on `Cn1nc(C(F)(F)C(F)(F)F)c(C(F)(F)F)c1C(=O)Nc1ccc(F)c(C(=O)NC2CC2)c1` [Example Ik-155, reference compound] yielded an inhibition at 100 g/ha ([2]; TETRUR, 100 g/ha, 6 dat) of 0% and an inhibition at 100 g/ha ([1]; MYZUPE, 100 g/ha, 6 dat) of 0%.
With `CC(=O)NCc1c(F)ccc(N(C)C(=O)c2c(C(F)(F)F)c(C(F)(F)C(F)(F)F)nn2C)c1F` [Example 7, N-[3-(acetamidomethyl)-2,4-difluorophenyl]-N,1-dimethyl-3-(pentafluoroethyl)-4-(trifluoromethyl)-1H-pyrazole-5-carboxamide] the chromatographic logP [5] was 2.85, the inhibition at 500 g/ha ([2]; TETRUR, 500 g/ha, 6 dat) was 100% and the inhibition at 100 g/ha ([3]; PHAECO, 7 dat) was 100%. It also gave an inhibition at 500 g/ha ([1]; MYZUPE, 6 dat) of 100%.
With `CC(C)NC(=O)c1cc(NC(=O)c2c(C(F)(F)F)c(C(F)(F)C(F)(F)F)nn2C)ccc1F` [Example Ik-75, reference compound] the inhibition at 100 g/ha ([2]; TETRUR, 100 g/ha, 6 dat) was 0%, the inhibition at 500 g/ha ([2]; TETRUR, 500 g/ha, 6 dat) was 0% and the inhibition at 20 g/ha ([3]; PHAECO, 20 g/ha, 7 dat) was 0%. For the same compound, the inhibition at 100 g/ha ([1]; MYZUPE, 100 g/ha, 6 dat) was 0% and the inhibition at 500 g/ha ([1]; MYZUPE, 6 dat) was 0%.
For `CCC(=O)NCc1cc(N(CC)C(=O)c2c(C(F)(F)F)c(C(F)(F)C(F)(F)F)nn2C)ccc1F` [Example 3], the “efficacy compared to similar compounds” value [2] was “superior efficacy”, the inhibition at 500 g/ha ([2]; TETRUR, 500 g/ha, 6 dat) was 100% and the “efficacy compared to similar compounds” value [3] was “superior efficacy”. The inhibition at 20 g/ha ([3]; PHAECO, 20 g/ha, 7 dat) was 100%, the “efficacy compared to similar compounds” value [1] was “superior efficacy” and the inhibition at 20 g/ha ([1]; MYZUPE, 20 g/ha, 6 dat) was 100%.
In the case of `CCN(C(=O)c1c(C(F)(F)F)c(C(F)(F)C(F)(F)F)nn1C)c1ccc(F)c(CNC(C)=O)c1` [Example 9], the “efficacy compared to similar compounds” value [2] was “superior efficacy”, the inhibition at 500 g/ha ([2]; TETRUR, 500 g/ha, 6 dat) was 100% and the “efficacy compared to similar compounds” value [1] was “superior efficacy”. For the same compound, the inhibition at 20 g/ha ([1]; MYZUPE, 20 g/ha, 6 dat) was 100%.
For `CC(=O)NCc1cc(NC(=O)c2c(Br)c(C(F)(F)C(F)(F)F)nn2C)ccc1F` [Example 926], the “efficacy compared to similar compounds” value [2] was “superior efficacy” and the inhibition at 100 g/ha ([2]; TETRUR, 100 g/ha, 6 dat) was 90%.
`CCCC(=O)NCc1cc(NC(=O)c2c(C(F)(F)F)c(C(F)(F)C(F)(F)F)nn2C)ccc1Cl` [Am-41, N-{3-[(butyrylamino)methyl]-4-chlorophenyl}-1-methyl-3-(pentafluoroethyl)-4-(trifluoromethyl)-1H-pyrazole-5-carboxamide] showed a chromatographic logP [5] of 3.7.
In the case of `CCC(=O)NCc1cc(NC(=O)c2c(C(F)(F)F)c(C(F)(F)C(F)(F)F)nn2C)ccc1F` [Example 4], the “efficacy compared to similar compounds” value [2] was “superior efficacy”, the inhibition at 500 g/ha ([2]; TETRUR, 500 g/ha, 6 dat) was 100% and the “efficacy compared to similar compounds” value [3] was “superior efficacy”. The inhibition at 20 g/ha ([3]; PHAECO, 20 g/ha, 7 dat) was 100%, the “efficacy compared to similar compounds” value [1] was “superior efficacy” and the inhibition at 500 g/ha ([1]; MYZUPE, 6 dat) was 100%.
